From PubChem BioAssay AID977606 (Broad Institute, 2014)
Values joined by “and” are separate entries in the source; they are usually repeats but may differ in a detail not shown here. Equal values may be shown once.

System: INS-1E Gaussia luciferase insulin secretion, no glucose, luminescence
Experiment: insulin secretion activators without glucose, dose response, counter-screen for glucose-dependent insulin secretion activators, cell-based, INS-1E, Gaussia luciferase, luminescence, cherry-pick (AID 977606)

SMILES | AC40
Cn1c(=O)c(C(=O)NNC(=O)c2cccc(Cl)c2)c(O)c2ccccc21 | 9.13 µM
Cc1nc2c(-c3ccc(F)cc3)cnn2c2c1CCC2 | 20.1 µM
COc1cccc(-c2cc(C(=O)Nc3cc(C)on3)no2)c1 | 10.7 µM
COc1ccc(/C=N/NC(=O)c2ccc(COc3ccccc3Cl)o2)c(OC)c1C | 4.97 µM
O=C(Nc1ccccc1N1CCOCC1)C1=NN(c2ccccc2)C(=O)CC1 | 24.3 µM
COc1ccc(C(O)c2nc(-c3ccc(OC)c(OC)c3)cs2)cc1 (centres undefined) | 34.2 µM
CCOc1ccc(-n2nnnc2-c2nc3ccccc3s2)cc1 | 12.2 µM
Fc1ccc(/C=N/c2c(-c3ccc(F)cc3)nc3n2CCS3)cc1 | 6.12 µM
COc1ccc2c(c1)CCc1c(C(=O)Nc3cc(C)n(Cc4ccc(Cl)cc4)n3)noc1-2 | 1.86 µM
O=C(Nc1ccc(SC(F)F)cc1)c1cccc2nc3ccccc3nc12 | 10.2 µM
COc1ccc(/C=N/N(C(C)=O)c2nc(-c3ccc(C)cc3)cs2)cc1 | 1.98 µM
FC(F)(F)c1cc(CCN2CCNC[C@@H]2c2ccccc2)cc(C(F)(F)F)c1 | 7.26 µM
CC(C)CSc1nc2c(c(=O)[nH]c(=O)n2C)n1CCc1ccccc1 | 9.29 µM
CCOc1cc(N2CCOCC2)c(OCC)cc1NC(=O)COC(=O)c1cc2ccccc2cc1O | 4.74 µM
COc1ccc(C(=O)Cc2ccc3c(c2)OCO3)c(O)c1 | 25 µM
COc1cc(OC)c2c(-c3ccccc3)cc(C3CCCCC3)nc2c1 | 12.1 µM
O=C(Nc1nc(-c2ccc(-c3ccccc3)cc2)cs1)C1=COCCO1 | 4.37 µM
Cc1cccc(S(=O)(=O)N2CCCCN3[C@@H](CO)[C@@H](c4ccc(C#CC(C)C)cc4)[C@@H]3C2)c1 | 7.76 µM
O=C(Cn1c(COc2ccccc2)nc2ccccc21)Nc1cc(Cl)cc(Cl)c1 | 5.2 µM
O=C(Cn1nnc(-c2ccccc2)n1)N=Nc1c(O)[nH]c2ccccc12 | 8.24 µM
CN(C)CCNC(=O)c1cccc(-c2cc(NC=O)c3ncc(-c4cccc(C(F)(F)F)c4)n3c2)c1 | 13.7 µM
CCCCc1c(-c2ccccc2OC)ncn1CCc1ccccc1 | 9.48 µM
Cc1ccccc1-c1ccc(C2[C@@H]3CN(C(=O)Nc4cccc(F)c4)C[C@H]2N3)cc1 (some centres undefined) | 7.52 µM
COc1cc(/C=N/NC(=O)Nc2ccccc2)ccc1OCCOc1ccccc1C | 1.92 µM
CCCCc1c(-c2ccccc2OC)ncn1C(C)c1ccccc1 (centres undefined) | 12.5 µM
CN(C)CCOc1ccc(-c2c(-c3ccccc3)sc3ccccc23)cc1 | 1.97 µM
OC(c1ccccc1)(c1ccccc1)C1CCN(CCCOc2ccc(-c3ccsc3)cc2)CC1 | 9.65 µM

SMILES | AC40
CCC(C)Sc1cccc(-c2nc3cnccn3c2NC2CCCCC2)c1 (centres undefined) | 4.26 µM
Cc1ccccc1-n1sc2cc(F)ccc2c1=O | 0.539 µM
COC(=O)c1ccc(C2C(Oc3ccc(OC)cc3)C(=O)N2CCc2ccc(F)cc2)cc1 (centres undefined) | 6.79 µM
N#Cc1ccc(-c2ccc([C@@H]3[C@H]4CNC[C@@H]3N4Cc3cc(F)ccc3F)cc2)cc1 | 12.8 µM
CCOC(=O)c1cc(-c2ccc(Cl)s2)nc2c1c(C)nn2C | 13.6 µM
Cc1ccc(/C=N/NC(=O)COc2ccccc2-c2ccccc2)cc1 | 4.99 µM
CCCCc1c(-c2ccc(F)cc2F)ncn1CCc1ccccc1OC | 5.38 µM
O=S(=O)(c1ccccc1F)N1C[C@@H]2N[C@H](C1)C2c1ccc(/C=C/c2ccccc2)cc1 (some centres undefined) | 7.12 µM
Cc1cc(Nc2ccc(Cl)cc2)nc(NCc2ccccc2)n1 | 6.67 µM
COc1ccccc1NC(=O)N1CCCCN2[C@@H](CO)[C@@H](c3ccc(C#CC4CCCC4)cc3)[C@@H]2C1 | 9.17 µM
CCCOc1ccc(/C=N/NC(=O)C(=O)Nc2ccccn2)cc1 | 18.5 µM
COc1ccc(C)cc1NCc1cc(=O)oc2cc(-c3ccccc3)c(O)cc12 | 23.6 µM
CN(C)CCNC(=O)c1cc2c(s1)-c1ccc(Cl)cc1SC2 | 4.87 µM
Cc1ccccc1-c1ccc(C2[C@@H]3CN(S(=O)(=O)c4ccccc4C)C[C@H]2N3)cc1 (some centres undefined) | 5.8 µM
COCc1[nH]nc2c1C(c1ccc(C)cc1)NC2=O (centres undefined) | 28.5 µM
CC(C)C[C@H](NC(=O)c1nc[nH]c1C(=O)NC1CCN(C(=O)OC(C)(C)C)CC1)C(=O)OC(C)(C)C | 26.4 µM
Cc1ccc(CNc2nc(NCc3ccccc3)nc3ccsc23)c(C)c1 | 5.58 µM
O=C(NCC1OCCc2ccccc21)c1ccc(NC(=O)c2ccc(Cl)cc2Cl)cc1 (centres undefined) | 17.9 µM
COc1ccc(CCNC(=O)C(=O)NN=C2CCCCCCC2)cc1OC | 21.7 µM
COc1cccc(-c2ccc(C3[C@@H]4CN(Cc5cccc(F)c5)C[C@H]3N4)cc2)c1 (some centres undefined) | 7.22 µM
CN(C)C(=O)COC(=O)c1cccnc1Nc1ccccc1F | 29.5 µM
CC1CCN(S(=O)(=O)c2ccc(C(=O)OCc3ccc4c(c3)OCO4)cc2)CC1 | 11.4 µM
Cc1cccc(-c2ccc(C3[C@@H]4CN(C(=O)C5CCCCC5)C[C@H]3N4)cc2)c1 (some centres undefined) | 11.3 µM
Cc1cccn2cc(CNS(=O)(=O)c3ccc4ccccc4c3)nc12 | 2.91 µM
CC(=O)N(/N=C/c1cccc(C)c1)c1nc(-c2ccc(Br)cc2)cs1 | 2.15 µM
Cc1ccc(-c2ccc(C3[C@@H]4CN(C(=O)Nc5ccc(C(F)(F)F)cc5)C[C@H]3N4)cc2)cc1 (some centres undefined) | 1.17 µM and 2.2 µM
C[C@@H]1CN([C@H](C)CO)S(=O)(=O)c2ccc(-c3ccc(F)cc3)cc2O[C@H]1CN(C)Cc1cccc(F)c1 | 17.7 µM
